Assay results as given in article PMC10669220, “In Vitro α-Glucosidase and α-Amylase Inhibition, Cytotoxicity and Free Radical Scavenging Profiling of the 6-Halogeno and Mixed 6,8-Dihalogenated 2-Aryl-4-methyl-1,2-dihydroquinazoline 3-Oxides” (Antioxidants, 2023).

What was measured:
[1] = target: T1, α-Glucosidase type 1 from baker's yeast (Saccharomyces cerevisiae, UniProt P53341); experiment: biochemical; settings: IC50 α-Glucosidase, mean ± SD, triplicate; tested at 1, 5, 10, 25, 50 µM
T1 construct: purchased Sigma Aldrich (Pty) Ltd. G5003

[2] = DPPH radical scavenging assay; settings: mean ± SD; 45 min in the dark; 512 nm
How it was run: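 Compounds (0–50 µM, in DMSO) were mixed with 0.20 mM DPPH in methanol and kept in the dark for 45 min, with absorbance read at 512 nm. IC50 values were obtained by nonlinear regression of triplicate averaged readings.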

[3] = NO free radical scavenging assay (sodium nitroprusside/Griess); settings: mean ± SD; sodium nitroprusside, Griess reagent, 550 nm
How it was run: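 Test compound incubated with 10 mM sodium nitroprusside (stock) in phosphate buffer for 2.5 h at 25 °C, then Griess reagent added for 30 min. Triplicate absorbance means used for IC50 by nonlinear dose–response regression.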

[4] = tested on: NO generated from nitric oxide synthase (NOS); experiment: Inhibitory activity against NO generated from NOS (EnzyChrom kit); type: biochemical; settings: mean ± SD, 1-50 µM
Description: A nitric oxide synthase (NOS) assay was performed following the procedure recommended by the manufacturer as outlined in the screening kit (Catalogue No. EINO-100; EnzyChrom). Various concentrations (1, 5, 10, 25 and 50 µM) of the compounds 3a, 3c, 3f, 3i, 3l, 3n and 3p and the reference standard, ascorbic acid, were prepared. The enzyme solution (12.5 U/mL NOS, 10 µL), assay buffer (25 µL) and test samples (5 µL) were incubated at room temperature for 15 min. After pre-incubation, 10 µL of reaction mix was added and incubated at 37 °C for 60 min. A 200 µL quantity of NO detection reagent was added, the detection reaction was run at 37 °C for 60 min, and absorbance was determined at a wavelength of 540 nm using an Elisa plate reader (Varioskan Flash, ThermoFisher Scientific, Vantaa, Finland). The average of three readings was used to calculate the NOS percentage inhibition using the following formula: % Inhibition=1−ΔOD Test Compd/ΔOD No Inhibitor ×100%
The IC50 values and standard deviation values were determined from nonlinear regression dose–response curve and compared with the results in GraphPad prism.

[5] = target: superoxide dismutase (SOD); experiment: Superoxide dismutase (SOD) inhibitory assay (SOD assay kit-WST); type: biochemical; settings: duplicate; 1-50 µM; 25 °C, 30 min; read-out: IC50 SOD inhibition
Description: The antioxidant activity of the compounds 3a, 3c, 3f, 3i, 3l, 3n and 3p against superoxide radicals was assessed via enzymatic assay in vitro using the SOD assay kit-WST according to the manufacturer’s instructions (Sigma-Aldrich®). The reaction mixtures in the SOD kit were combined with 20 μL of working solution of the samples in a 96-well plate. Plates were gently shaken and then incubated at 25 °C for 30 min. The reference positive control, diphenyleneiodonium (DPI), and the compounds were tested at 01, 5, 10, 25 and 50 µM in duplicates. The inhibition activity of SOD on the reaction of […] generated the superoxide with a tetrazolium salt, which was then determined by measuring the absorbance of the mixtures at a wavelength of 450 nm using an Elisa plate reader (Varioskan Flash, ThermoFisher Scientific, Vantaa, Finland). The SOD activity values obtained used to calculate the percentage of inhibition. % SOD activity=ODx− ODy/ODx ×100% where ODx is the absorbance of the blank (untreated SOD) and ODy is the absorbance of the sample (treated SOD). All tests were performed in duplicate.

[6] = tested on: lung cancer (A549) cell line; experiment: MTT cytotoxicity assay, A549; settings: for Cell viability percentage, A549: Table S3
[7] = tested on: breast cancer (MCF-7) cell line; experiment: MTT cytotoxicity assay, MCF-7; settings: for Cell viability percentage, MCF-7: Table S2
Description: (§1) Cells were cultured in sterile Dulbecco’s Minimal Essential Medium (DMEM, Gibco) supplemented with 10% fetal bovine serum (FBS) and 1% penicillin-streptomycin solution. […] Cell counting was carried out using a handheld automated cell counter (Scapter 3.0™, Merck, Burlington, MA, USA) and seeded (1 × 10^4 cells/well) into a 96-well plate. After 24 h, the cells were treated with different concentrations (1, 5, 10, 25 and 50 µM) of the test compounds and reference standards prepared in DMEM. The MTT solution (20 μL) prepared in PBS (5 mg/mL) was added to all the wells, and the plates were incubated for 4 h, followed by 1 h incubation with 100 µL of dimethyl sulfoxide (DMSO) to dissolve the formazan crystals. Untreated cells and 5% DMSO were included in the experiment as negative controls. All experiments were performed in triplicate. The plates were read at 570 nm at a reference wavelength of 630 nm using an ELISA plate reader (Varioskan Flash, ThermoFisher Scientific, Vantaa, Finland). The percentage of cell viability was calculated using the following formula, Cell viability %=At/Ab×100 where At represents the absorbance value of test compound and Ab the absorbance value of the blank. […] The data were expressed as means ± SD.

[8] = MTT cytotoxicity assay, HEK293-T; settings: human, HEK293-T cells
Description: as §1

[9] = tested on: human embryonic kidney (HEK293-T) cell line; experiment: MTT cytotoxicity assay, HEK293-T; settings: Homo sapiens, HEK-293T, read-out: IC50 Hek293-T
Description: as §1

T1 sequence (P53341 whole entry): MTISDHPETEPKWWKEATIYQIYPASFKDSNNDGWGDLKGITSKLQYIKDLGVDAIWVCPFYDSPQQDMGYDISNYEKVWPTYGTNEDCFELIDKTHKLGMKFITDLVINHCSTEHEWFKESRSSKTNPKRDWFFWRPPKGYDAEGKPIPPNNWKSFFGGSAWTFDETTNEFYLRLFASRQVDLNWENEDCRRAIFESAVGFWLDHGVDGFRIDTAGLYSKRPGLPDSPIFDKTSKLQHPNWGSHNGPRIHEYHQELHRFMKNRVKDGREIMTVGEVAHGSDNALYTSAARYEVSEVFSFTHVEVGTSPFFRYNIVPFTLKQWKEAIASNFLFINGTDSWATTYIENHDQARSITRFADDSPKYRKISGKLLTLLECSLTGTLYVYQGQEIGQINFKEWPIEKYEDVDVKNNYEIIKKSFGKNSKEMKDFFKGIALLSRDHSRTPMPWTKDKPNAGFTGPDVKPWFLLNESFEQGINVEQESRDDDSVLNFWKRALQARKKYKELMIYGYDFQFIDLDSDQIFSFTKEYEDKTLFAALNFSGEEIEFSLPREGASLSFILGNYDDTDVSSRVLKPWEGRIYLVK

Work on `CC1=[N+]([O-])C(c2ccccc2)Nc2c(I)cc(Br)cc21` (stereo not drawn) [Compound 3i] yielded an IC50 [1] of 1.01 ± 0.05 µM, an IC50 [2] of 1.04 ± 0.077 µM and an IC50 [3] of 61.26 ± 0.005 µM. It also gave an IC50 [4] of 29.08 ± 0.004 µM, an IC50 [5] of 15 ± 0.14 µM and a melting point of 162 to 164 °C. For the same compound, the “Cell viability percentage, A549” value ([6]; Conc. 1 (µM per method)) was 84,0927%, the “Cell viability percentage, A549” value ([6]; Conc. 5 (µM per method)) was 69,8954% and the “Cell viability percentage, A549” value ([6]; Conc. 10 (µM per method)) was 61,098%. For the same compound, the “Cell viability percentage, A549” value ([6]; Conc. 25 (µM per method)) was 43,9195%, the “Cell viability percentage, A549” value ([6]; Conc. 50 (µM per method)) was 23,0847% and the IC50 ([6]; Homo sapiens, A549, read-out: IC50 A549) was 16.85 ± 0.05 µM. The “Cell viability percentage, MCF-7” value ([7]; Conc. 1 (µM per method)) was 24,1184%, the “Cell viability percentage, MCF-7” value ([7]; Conc. 5 (µM per method)) was 22,006% and the “Cell viability percentage, MCF-7” value ([7]; Conc. 10 (µM per method)) was 22,1058%. The “Cell viability percentage, MCF-7” value ([7]; Conc. 25 (µM per method)) was 19,5775%, the “Cell viability percentage, MCF-7” value ([7]; Conc. 50 (µM per method)) was 18,1803% and the IC50 ([7]; Homo sapiens, MCF7, read-out: IC50 MCF-7) was 15.43 ± 0.06 µM. For the same compound, the viability at 1 µM [8] was 34.9%, the viability at 5 µM [8] was 33.9% and the viability at 10 µM [8] was 33.8%. It also gave a viability at 25 µM [8] of 29.8%, a viability at 50 µM [8] of 26.9% and an IC50 [9] of 34.9 ± 0.13 µM.
